Experimental data taken from PubChem BioAssay (NCI).
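Step 1: Grow cells in 96-well plates. Step 2: Expose to compound for 48 hours at 5 concentrations. Step 3: Interpolate endpoints linearly; if unreached, use highest concentration. Abbreviation: GI50, concentration required for 50% inhibition of growth. Definition used: TGI = concentration required for complete inhibition of growth.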

What was measured:
Experiment in all cases: DTP human tumour cell line panel, 48 h; in the data active = GI50 below about 0.43 µM; inactive = the rest
UACC-62 melanoma = tested on: UACC-62 melanoma
SNB-75 CNS = tested on: SNB-75 CNS
HOP-92 NSCLC = tested on: HOP-92 NSCLC
SF-268 CNS = tested on: SF-268 CNS
SN12C renal = tested on: SN12C renal
CAKI-1 renal = tested on: CAKI-1 renal
PC-3 prostate = tested on: PC-3 prostate
LOX IMVI melanoma = tested on: LOX IMVI melanoma
T-47D breast = tested on: T-47D breast
M14 melanoma = tested on: M14 melanoma
U251 CNS = tested on: U251 CNS
786-0 renal = tested on: 786-0 renal
HT29 colon = tested on: HT29 colon
KM12 colon = tested on: KM12 colon
NCI-H522 lung = tested on: NCI-H522 lung
A498 renal = tested on: A498 renal
MDA-MB-435 = tested on: MDA-MB-435
SF-295 CNS = tested on: SF-295 CNS
DU-145 prostate = tested on: DU-145 prostate
MALME-3M melanoma = tested on: MALME-3M melanoma
HOP-62 NSCLC = tested on: HOP-62 NSCLC
SR leukemia = tested on: SR leukemia
SK-MEL-28 melanoma = tested on: SK-MEL-28 melanoma
HCT-15 colon = tested on: HCT-15 colon
SNB-19 CNS = tested on: SNB-19 CNS
MDA-MB-231 breast = tested on: MDA-MB-231 breast
OVCAR-8 ovarian = tested on: OVCAR-8 ovarian
SF-539 CNS = tested on: SF-539 CNS
OVCAR-4 ovarian = tested on: OVCAR-4 ovarian
SW-620 colon = tested on: SW-620 colon
HL-60(TB) leukemia = tested on: HL-60(TB) leukemia
UO-31 renal = tested on: UO-31 renal
RPMI-8226 leukemia = tested on: RPMI-8226 leukemia
NCI-H23 lung = tested on: NCI-H23 lung
CCRF-CEM leukemia = tested on: CCRF-CEM leukemia
SK-MEL-2 melanoma = tested on: SK-MEL-2 melanoma
TK-10 renal = tested on: TK-10 renal
MOLT-4 leukemia = tested on: MOLT-4 leukemia
OVCAR-5 ovarian = tested on: OVCAR-5 ovarian
HCT-116 colon = tested on: HCT-116 colon
ACHN renal = tested on: ACHN renal
NCI/ADR-RES ovarian = tested on: NCI/ADR-RES ovarian
NCI-H226 lung = tested on: NCI-H226 lung
UACC-257 melanoma = tested on: UACC-257 melanoma
SK-OV-3 ovarian = tested on: SK-OV-3 ovarian
MCF7 breast = tested on: MCF7 breast
K-562 leukemia = tested on: K-562 leukemia
COLO 205 colon = tested on: COLO 205 colon
BT-549 breast = tested on: BT-549 breast
IGROV1 ovarian = tested on: IGROV1 ovarian
HCC-2998 colon = tested on: HCC-2998 colon
SK-MEL-5 melanoma = tested on: SK-MEL-5 melanoma
A549 NSCLC = tested on: A549 NSCLC
HS 578T breast = tested on: HS 578T breast
EKVX NSCLC = tested on: EKVX NSCLC

CCC1=Cc2cc(OC)ccc2OC12C=Cc1cc(OC)ccc1O2 (configuration not stated)
3.81 µM: TGI (BT-549 breast)
2150 nM: TGI (SF-539 CNS)
> 100 µM: TGI (UACC-62 melanoma) | TGI (SF-268 CNS) | TGI (SN12C renal) | TGI (CAKI-1 renal) | TGI (PC-3 prostate) | TGI (LOX IMVI melanoma) | TGI (T-47D breast) | TGI (U251 CNS) | TGI (786-0 renal) | TGI (KM12 colon) | TGI (SF-295 CNS) | TGI (DU-145 prostate) | TGI (MALME-3M melanoma) | TGI (HOP-62 NSCLC) | TGI (SR leukemia) | TGI (SK-MEL-28 melanoma) | TGI (HCT-15 colon) | TGI (SNB-19 CNS) | TGI (MDA-MB-231 breast) | TGI (OVCAR-8 ovarian) | TGI (OVCAR-4 ovarian) | TGI (SW-620 colon) | TGI (HL-60(TB) leukemia) | TGI (UO-31 renal) | TGI (RPMI-8226 leukemia) | TGI (NCI-H23 lung) | TGI (CCRF-CEM leukemia) | TGI (TK-10 renal) | TGI (MOLT-4 leukemia) | TGI (OVCAR-5 ovarian) | TGI (HCT-116 colon) | TGI (ACHN renal) | TGI (NCI/ADR-RES ovarian) | TGI (NCI-H226 lung) | TGI (UACC-257 melanoma) | TGI (SK-OV-3 ovarian) | TGI (MCF7 breast) | TGI (K-562 leukemia) | TGI (IGROV1 ovarian) | TGI (HCC-2998 colon) | TGI (SK-MEL-5 melanoma) | TGI (A549 NSCLC) | TGI (EKVX NSCLC)
896 nM: TGI (SK-MEL-2 melanoma)
936 nM: TGI (NCI-H522 lung)
inactive: GI50 (UACC-62 melanoma) 553 nM | GI50 (HOP-92 NSCLC) 964 nM | GI50 (SF-268 CNS) 1040 nM | GI50 (SN12C renal) 796 nM | GI50 (CAKI-1 renal) 504 nM | GI50 (PC-3 prostate) 536 nM | GI50 (LOX IMVI melanoma) 484 nM | GI50 (U251 CNS) 517 nM | GI50 (786-0 renal) 676 nM | GI50 (DU-145 prostate) 481 nM | GI50 (MALME-3M melanoma) 624 nM | GI50 (HOP-62 NSCLC) 594 nM | GI50 (SK-MEL-28 melanoma) > 100 µM | GI50 (HCT-15 colon) 450 nM | GI50 (SNB-19 CNS) 550 nM | GI50 (MDA-MB-231 breast) 964 nM | GI50 (OVCAR-8 ovarian) 596 nM | GI50 (OVCAR-4 ovarian) > 100 µM | GI50 (UO-31 renal) 1150 nM | GI50 (NCI-H23 lung) 1070 nM | GI50 (TK-10 renal) > 100 µM | GI50 (MOLT-4 leukemia) 500 nM | GI50 (OVCAR-5 ovarian) 936 nM | GI50 (HCT-116 colon) 518 nM | GI50 (ACHN renal) 789 nM | GI50 (NCI-H226 lung) 1060 nM | GI50 (UACC-257 melanoma) 977 nM | GI50 (SK-OV-3 ovarian) 563 nM | GI50 (BT-549 breast) 499 nM | GI50 (IGROV1 ovarian) 739 nM | GI50 (HCC-2998 colon) 1710 nM | GI50 (SK-MEL-5 melanoma) 1420 nM | GI50 (A549 NSCLC) 809 nM | GI50 (EKVX NSCLC) 678 nM
503 nM: TGI (MDA-MB-435)
827 nM: TGI (A498 renal)
1270 nM: TGI (HT29 colon)
> 26.7 µM: TGI (HOP-92 NSCLC)
720 nM: TGI (SNB-75 CNS)
active: GI50 (SNB-75 CNS) 218 nM | GI50 (M14 melanoma) 366 nM | GI50 (HT29 colon) 347 nM | GI50 (KM12 colon) 423 nM | GI50 (NCI-H522 lung) 283 nM | GI50 (A498 renal) 250 nM | GI50 (MDA-MB-435) 228 nM | GI50 (SF-295 CNS) 418 nM | GI50 (SR leukemia) 327 nM | GI50 (SF-539 CNS) 328 nM | GI50 (SW-620 colon) 385 nM | GI50 (HL-60(TB) leukemia) 331 nM | GI50 (RPMI-8226 leukemia) 393 nM | GI50 (CCRF-CEM leukemia) 398 nM | GI50 (SK-MEL-2 melanoma) 303 nM | GI50 (NCI/ADR-RES ovarian) 421 nM | GI50 (MCF7 breast) 389 nM | GI50 (K-562 leukemia) 379 nM | GI50 (COLO 205 colon) 326 nM | GI50 (HS 578T breast) 298 nM
898 nM: TGI (COLO 205 colon)
